The results in this text go back to US12521439B2, “Methods and materials for modulating Nrf2 pathway” (The General Hospital Corporation, priority 2019, dated 2026).

Entries after “also recorded” stand apart in the source; their conditions may differ. Counter-ions that a name gives are not always drawn.

Data set [1] is described as follows: Solubility in aqueous media. It is filed as physicochemical.
Data set [2] concerns U87 glioma cells. Nature of the data set: Cell viability (CellTiter-Glo), U87. It is filed as cell-based, human. The note with it: for U87 cell viability: same doses as ARE test, FIG. 12D. As to the method:
Cell culture: MDA-MB-231 and U87 (U87-MG) cells were obtained from the American Type Culture Collection (ATCC). 293T human embryonic kidney fibroblasts were provided by Dr. Xandra Breakefield (Massachusetts General Hospital). All three cell lines were grown in Dulbecco's modified Eagle medium supplemented with 10% fetal bovine serum (Gemini Bio-products), 100 U penicillin, and 0.1 mg/mL streptomycin (Sigma). All cells were maintained at 37° C. in a humidified 5% CO2 incubator. GSCs were obtained from tumor tissues of GBM patients following surgical resection, under approval from the corresponding Institutional Review Board. These cells have been previously characterized (ref. 37-39) and were maintained in culture as neurospheres in Neurobasal medium (Gibco) supplemented with heparin (2 μg/mL; Sigma) and recombinant EGF (20 ng/mL) and bFGF-2 (10 ng/mL; Peprotech). Human Astrocytes were obtained from ScienCell and cultured in Astrocytes Medium (ScienCell)
(§1) Cell viability: Cells were plated in 96-well plates and treated with the corresponding compounds. Cell viability was measured by adding 25 μl/well of CellTiter-Glo (Promega) followed by 10 minutes incubation and transfer to a white 96-well plate. Bioluminescence was quantified using Synergy HTX multimode reader (Biotek).

The subject of data set [3] is ARE (Nrf2 pathway). The data set can be described thus: ARE-Gluc luciferase reporter (normalized to SV40-Vluc). It is filed as cell-based, human. The note with it: for ARE activity: U87, CINN 100, FUM 50 μM, SULF 5 μM, FIG. 12C. From the text: DNA expression constructs: ARE reporter was designed and generated based on our previously published reporter for monitoring of the transcription factor Nuclear Factor Kappa B (NFkB). NFkB TRE elements were removed and replaced with four copies of the ARE enhancer sequence. This reporter consists of a CSCW lentivirus vector in which we have introduced two copies of the 1.2 kb chicken beta-globin (HS4) insulator elements, a TATA box acting as a minimal promoter upstream of the secreted Gaussia luciferase (Gluc). pcDNA3-HA2-Keap1 (Addgene plasmid #21556) and pcDNA3-HA2-Keap1 delta BTB (Addgene plasmid #21593) were a gift from Yue Xiong^2. pHAGE DN Cullin 3 (DN-CUL3) was a gift from Stephen Elledge (Addgene plasmid #41913). Constructs expressing constitutively active Gluc, Firefly luciferase (Fluc) and Vargula luciferase (Vluc) were previously describe. MISSION shRNA Bacterial Glycerol Stocks for Keap1 as well as a non-target shRNA were obtained from Sigma. Transfection of plasmid DNA was performed using Lipofectamine 2000 (Invitrogen) as per manufacturer's guidelines. Lentivirus packaging and titration was performed in 293T cells by the MGH viral vector core facility following standard protocols. Keap1 mutant C151S plasmid was kindly provided by Dr. Wooyoung Hur.
Luciferase assay: Coelenterazine (20 μM; Nanolight), The Gluc substrate was added to a 25 μL aliquot of conditioned medium and photon counts were measured using a luminometer. Similarly, the secreted Vluc activity was measured by adding its substrate vargulin (5 ng/mL; Nanolight). Cells stably expressing Gluc under the ARE enhancer sequence and Vluc under the constitutively active SV40 minimal promoter were used to determine the ARE reporter activity. The normalized Gluc/Vluc ratio was used as a marker for ARE activation.

The target of data set [4] is T1, BRD4 (Mus musculus, UniProt Q9ESU6).
T1 construct: CT2A glioma cells expressing mCherry fluorescent protein were implanted in the brain of mice; from tissue; host or cells: CT2A glioma tumour removed from mouse brain
The data set can be described thus: BRD4 degradation in mouse glioma model in vivo (Western blotting). Also noted: species or system mice. As to conditions: CT2A glioma; intratumoral, intravenous and intranasal routes; 24 hrs after last injection. How it is done:
CT2A glioma cells expressing mCherry fluorescent protein were implanted in the brain of mice and 2 weeks later, once tumor reached a significant size, mice were injected with 0.7 mg/kg body weight of OBT-JQ1 using different injection routes (1) direct intratumoral injection (single injection), intravenously (once/day over 3 days) and intranasally (once/day over 3 days, an injection route that typically bypasses the blood-brain barrier). 24 hrs after the last injection, brains were removed and the tumor was lysed and analyzed by Western blotting for BRD4 and mCherry and actin loading controls.

Data set [5] concerns cancer cells. Nature of the data set: Cancer cell death with OBT, JQ1, OBT-JQ1. It is filed as cell-based. The note with it: FIG. 23. As to the method:
as §1

Data set [6] has as its target T2, BRD4 (Homo sapiens, UniProt O60885). Nature of the data set: BRD4 degradation in glioma cells. The data set is classed as cell-based. The note with it: FIG. 15. Also noted: endogenous in cells. As to the method: (§2) Immunoblotting and Immunoprecipitation analysis: Antibodies against PDI, GAPDH, HA-tag, Ubiquitin, Keap1 and beta-actin (Cell Signaling) as well as secondary Horseradish peroxidase (HRP) conjugated antibodies: sheep anti-mouse IgG-HRP and donkey antirabbit IgG-HRP (Amersham Pharmacia Biotech) were used in this study. For protein expression analysis, cells were lysed in RIPA buffer (150 mM NaCl, 50 mM TRIS, pH 8.0, 1% NP-40, 0.5% deoxycholate, 0.1% SDS) supplemented with 1× protease inhibitors cocktail (Roche). Proteins were quantified using a Bradford protein determination assay (Bio-Rad) followed by electrophoresis in 10% NuPAGE Bis-Tris gels (Life Technologies) and transfer to nitrocellulose membranes (Bio-Rad). Membranes were incubated overnight with antibodies in 1-5% non-fat milk powder in PBS/0.5% TWEEN. Proteins were detected with SuperSignal West Pico Chemiluminescent Substrate (Pierce). For immunoprecipitation assays, cells were lysed in RIPA buffer supplemented with protease inhibitors and 2 mM N-ethylmaleimide. Cell lysates were pre-cleared with protein A agarose beads (Cell Signaling) and incubated with anti-HA antibody with gentle rocking overnight at 4° C. followed by incubation with protein A agarose beads and subsequent washing and elution steps. Electrophoresis, transfer and immunoblot analysis was performed as described above.

Data set [7] has as its target T2, BRD4. Nature of the data set: BRD4 degradation in breast cancer cells. It is filed as cell-based. Also noted: endogenous in cells. The note with it: FIG. 16. As to the method:
as §2

Data set [8] has as its target T2, BRD4. Nature of the data set: OBT-JQ1 PROTAC mechanism (proteasome block, Keap1/CUL3 knockdown). The data set is classed as cell-based. Further details: endogenous in cells. How it is done: as §2
The target in data set [9] is T2, BRD4. The data set can be described thus: BRD4 degradation in patient-derived glioma cells. It is filed as cell-based. Also noted: endogenous in cells; host or cells: patient-derived glioma cells; patient-derived breast cancer cells. The note with it: FIG. 17. How it is done: as §2
In data set [10] the target is T2, BRD4. The data set can be described thus: BRD4 degradation in patient-derived breast cancer cells. The note with it: FIG. 18. Further details: endogenous in cells; host or cells: patient-derived glioma cells; patient-derived breast cancer cells. The data set is classed as cell-based. How it is done: as §2

In the case of `COc1cc(O)c(O)cc1C(/C=C/c1ccccc1)SCCO` (stereo not drawn) [AF20a, (E)-4-(1-((2-hydroxyethyl)thio)-3-phenylallyl)-5-methoxybenzene-1,2-diol], in [1], the “solubility compared to OBT” value is given as “overcome the limited solubility of OBT”.
In the case of `COc1cc(O)c(O)cc1/C=C/C(SCCO)c1ccccc1` (stereo not drawn) [AF20b, (E)-4-(3-((2-hydroxyethyl)thio)-3-phenylprop-1-en-1-yl)-5-methoxybenzene-1,2-diol], the “solubility compared to OBT” value in data set [1] is reported as “overcome the limited solubility of OBT”.
Turning to `COC(=O)[C@]12CCC(C)(C)C[C@H]1[C@H]1C(=O)C=C3[C@@]4(C)C=C(C#N)C(=O)C(C)(C)[C@@H]4CC[C@@]3(C)[C@]1(C)CC2` [CDDO-Me, 2-cyano-3,12-dioxoolean-1,9-dien-28-oic acid-methyl ester], the cell viability result in data set [2] (higher doses, U87 cells, FIG. 12B) is reported as “marked decrease”. Further, in [3] (U87 and MDA-MB-231 cells, FIG. 12A), the ARE-Gluc reporter activity entry is recorded as “increased reporter activity”.
Regarding `COC1=CC(=O)C(OCC(=O)NCCCOCCOCCOCCCNC(=O)CC2N=C(c3ccc(Cl)cc3)c3c(sc(C)c3C)-n3c(C)nnc32)=C/C1=C/C=C/c1ccccc1` (stereo not drawn) [OBT-JQ1, 2-(4-(4-chlorophenyl)-2,3,9-trimethyl-6H-thieno[3,2-f][1,2,4]triazolo[4,3-a][1,4]diazepin-6-yl)-N-(1-(((Z)-4-methoxy-6-oxo-3-((E)-3-phenylallylidene)cyclohexa-1,4-dien-1-yl)oxy)-2-oxo-7,10,13-trioxa-3-azahexadecan-16-yl)acetamide], the “BRD4 degradation in brain tumors” value in data set [4] was “induces BRD4 degradation; also recorded: efficient BRD4 degradation”. Further, the “induced cell death in presence of antioxidant NAC” value in data set [5] was “not protected”. Further, the BRD4 degradation result in data set [6], in data set [7], in [9] and in [10] was “promotes targeted degradation of BRD4” in each case. For the same molecule, the “effect of OBT-JQ1 when proteasome is blocked” value in [8] (FIG. 20) was “reverses the effect”. Also, the “PROTAC activity in Keap1 and CuL3 knockdown” value in data set [8] (FIG. 21) is “retains PROTAC activity”.
As to `O=CC=Cc1ccccc1` [cinnamaldehyde], the U87 cell viability result in [2] is listed as “moderate decrease”. In addition, the ARE activity entry in data set [3] is given as “increased ARE activity”.
Consider `CCOC(=O)/C=C/C(=O)OCC` [diethyl fumarate], for which the U87 cell viability result in data set [2] is reported as “moderate decrease”. Further, the ARE activity result in data set [3] is on record as “increased ARE activity”.
For `C[S+]([O-])CCCCN=C=S` (stereo not drawn) [sulforaphane], in data set [2], the U87 cell viability result is listed as “moderate decrease”. Further, in [3], the ARE activity entry is on record as “increased ARE activity”.
